The subject of one series is Hela cells. Briefly: Activity on Hela cells cloning efficiency in vitro, treatment for 24 hours. The format is cell-based. Conditions: for % of controls (Hela cells cloning efficiency): 24 hours; for cytotoxicity relative to daunorubicin and doxorubicin: Hela cells cloning efficiency in vitro.
The nature of series [1]: Activity against P388 ascitic leukemia in mice, i.p. treatment on day 1 after tumor inoculation. In kind it is in vivo. Conditions: mouse, in vivo, ip; for MTD: i.p. day 1, P388 leukemia mice, read-out: maximal tolerated dose. The source says:
(§1) Activity against P388 ascitic leukemia of XOO-0148 and
(§2) Treatment i.p. on day 1 after tumor inoculation
(§3) ^(a) T/C % = median survival time of treated mice/median survival tim

Another series deals with P388 leukemia. The description is as above. In kind it is in vivo. Conditions: for antitumor activity (overall conclusion): conclusion from all studies; for potency relative to the corresponding parent compounds / toxicity relative to the corresponding parent compounds: i.p. day 1, P388 leukemia mice.
Source text: as §1, §2, §3

The nature of series [2]: Activity against i.v. inoculated Gross leukemia in mice, i.v. treatment on day 1 after tumor inoculation. The format is in vivo. The note with it: mouse, in vivo, iv; i.v. day 1, Gross leukemia mice; read-out: maximal tolerated dose. Here is the method:
(§4) Compound XOO-0148 was also tested on the i.v. inoculated Gross leukemia. Mice were treated i.v. on day 1.
(§5) Activity against Gross leukemia of XOO-0148
(§6) Treatment i.v. on day 1 after tumor inoculation
as §3

The next series relates to Gross leukemia. The description is as above. In kind it is in vivo. Here is the method:
as §4, §5, §6, §3

Where [3] appears, read: dose 12.5 (dose unit not given).

As to `COc1cccc2c1C(=O)c1c(O)c3c(c(O)c1C2=O)C[C@@](O)(C(C)=O)C[C@@H]3O[C@H]1C[C@H](N)[C@H](O)[C@H](C)O1` [Daunorubicin, daunorubicin, reference compound], the “% of controls (Hela cells cloning efficiency)” value (from here on “% of controls”) with Hela cells (dose 6.2 (dose unit not given)) is given as 90,48%; in the series with Hela cells (setting [3]) it was 44,19%. Further, the MTD in series [1] was determined as 2.9 mg/kg; in series [2] it was 6 mg/kg. The “T/C % (median survival time of treated mice/median survival time of controls x100)” value with P388 leukemia (2.9 mg/kg i.p. day 1) was 155%; in the series on P388 leukemia (4.4 mg/kg i.p. day 1) it was 160%; in the series on P388 leukemia (6.6 mg/kg i.p. day 1) it was 150%; in the series with Gross leukemia (4.6 mg/kg i.v. day 1), 180%; in the series on Gross leukemia (6 mg/kg i.v. day 1), 250%; in the series on Gross leukemia (7.8 mg/kg i.v. day 1), 250%. Besides, the “Toxicity Death” value in the series on P388 leukemia (2.9 mg/kg i.p. day 1) is listed as 0/10; in the series with P388 leukemia (4.4 mg/kg i.p. day 1), 2/10; with P388 leukemia (6.6 mg/kg i.p. day 1), 5/10; with Gross leukemia (4.6 mg/kg i.v. day 1), 0/10; with Gross leukemia (6 mg/kg i.v. day 1) it was 0/10; with Gross leukemia (7.8 mg/kg i.v. day 1), 3/10.

Consider `COc1cccc2c1C(=O)c1c(O)c3c(c(O)c1C2=O)C[C@@](O)(C(=O)CO)C[C@@H]3O[C@H]1C[C@H](N)[C@H](O)[C@H](C)O1` [Doxorubicin, doxorubicin, reference compound], for which the “% of controls” value in the series with Hela cells (setting [3]) is given as 63,93%; with Hela cells (dose 25 (dose unit not given)), 26,22%. Also, the MTD in series [1] was 10 mg/kg. Moreover, the “T/C % (median survival time of treated mice/median survival time of controls x100)” value with P388 leukemia (4.4 mg/kg i.p. day 1) was found to be 245%; in the series with P388 leukemia (6.6 mg/kg i.p. day 1), 255%; with P388 leukemia (10 mg/kg i.p. day 1), 345%. Besides, the “Toxicity Death” value in the series with P388 leukemia (4.4 mg/kg i.p. day 1), in the series with P388 leukemia (6.6 mg/kg i.p. day 1) and in the series with P388 leukemia (10 mg/kg i.p. day 1) was 0/10 in each case.

Turning to `COc1cccc2c1C(=O)c1c(O)c3c(c(O)c1C2=O)C[C@@](O)(C(C)=O)C[C@@H]3O[C@H]1C[C@@H](N)C[C@H](C)O1` [XOO-0148, 4'-deoxy-3'-epi-daunorubicin], the “cytotoxicity relative to daunorubicin and doxorubicin” value in the series with Hela cells is “less cytotoxic than daunorubicin and doxorubicin”. The “% of controls” value is reported as 89% in the series on Hela cells (dose 1.5 (dose unit not given)); 100% in the series with Hela cells (dose 3.1 (dose unit not given)); 98% with Hela cells (dose 6.2 (dose unit not given)); 111% in the series with Hela cells (setting [3]); 74,95% in the series with Hela cells (dose 25 (dose unit not given)); 86% with Hela cells (dose 50 (dose unit not given)). Also, the “% of controls” value in the series on Hela cells (dose 100 (dose unit not given)) turned out to be 10%. The “T/C % (median survival time of treated mice/median survival time of controls x100)” value in the series with P388 leukemia (5.1 mg/kg i.p. day 1) was 110%; with P388 leukemia (9.2 mg/kg i.p. day 1), 120%; in the series on P388 leukemia (16.6 mg/kg i.p. day 1) it was 130%; in the series with P388 leukemia (30 mg/kg i.p. day 1) it was 145%; in the series on Gross leukemia (22.5 mg/kg i.v. day 1) it was 240%; in the series with Gross leukemia (33.7 mg/kg i.v. day 1) it was 150%. The “T/C % (median survival time of treated mice/median survival time of controls x100)” value in the series on Gross leukemia (50 mg/kg i.v. day 1) turned out to be 120%. Besides, the “Toxicity Death” value with P388 leukemia (5.1 mg/kg i.p. day 1) is given as 0/10; with P388 leukemia (9.2 mg/kg i.p. day 1), 0/10; with P388 leukemia (16.6 mg/kg i.p. day 1), 0/10; in the series with P388 leukemia (30 mg/kg i.p. day 1) it was 0/10; in the series on Gross leukemia (22.5 mg/kg i.v. day 1), 0/10; in the series with Gross leukemia (33.7 mg/kg i.v. day 1) it was 6/10. Moreover, the “Toxicity Death” value in the series with Gross leukemia (50 mg/kg i.v. day 1) is listed as 10/10. Further, the “toxicity at the maximal dose tested” value with P388 leukemia (30 mg/kg i.p.) was “not toxic”. For the same compound, the “antitumor activity relative to daunorubicin” value in the series with P388 leukemia (30 mg/kg i.p. vs daunorubicin at 2.9 mg/kg) and in the series with Gross leukemia (22.5 mg/kg i.v. vs daunorubicin at 6 mg/kg) was “about as active as daunorubicin” in each case. Also, the “antitumor activity (overall conclusion)” value in the series with P388 leukemia was “remarkable antitumor activity”. In addition, in the series with P388 leukemia, the “potency relative to the corresponding parent compounds” value was “less potent than the corresponding parent compounds”. In addition, the “toxicity relative to the corresponding parent compounds” value in the series with P388 leukemia is given as “less toxic”. The MTD in series [2] worked out at 22.5 mg/kg. Besides, the “toxicity relative to daunorubicin” value in the series on Gross leukemia (i.v. day 1, Gross leukemia mice) is “less toxic than daunorubicin”.

Regarding `COc1cccc2c1C(=O)c1c(O)c3c(c(O)c1C2=O)C[C@@](O)(C(=O)CO)C[C@@H]3O[C@H]1C[C@@H](N)C[C@H](C)O1` [XOO-0155, 4'-deoxy-3'-epi-doxorubicin], the “cytotoxicity relative to daunorubicin and doxorubicin” value in the series on Hela cells was “less cytotoxic than daunorubicin and doxorubicin”. In the series on Hela cells (dose 100 (dose unit not given)), the “% of controls” value is listed as 12,5%. Further, in series [1] (22.5 mg/kg i.p. day 1, read-out: Toxicity Death), the mortality was 10%. Also, the MTD in series [1] worked out at 22.5 mg/kg. Also, in the series on P388 leukemia (15 mg/kg i.p. day 1), the “T/C % (median survival time of treated mice/median survival time of controls x100)” value worked out at 195% and the “Toxicity Death” value is 0/10. The “T/C % (median survival time of treated mice/median survival time of controls x100)” value in the series with P388 leukemia (22.5 mg/kg i.p. day 1) worked out at 235%. Moreover, the “antitumor effect relative to doxorubicin” value in the series with P388 leukemia (22.5 mg/kg i.p. vs doxorubicin at 10 mg/kg) is recorded as “lower than that observed after treatment with doxorubicin”. In the series with P388 leukemia (33.7 mg/kg i.p. day 1), the “T/C % (median survival time of treated mice/median survival time of controls x100)” value came to 260% and the “Toxicity Death” value is 4/10. For the same compound, in the series on P388 leukemia (50 mg/kg i.p. day 1), the “T/C % (median survival time of treated mice/median survival time of controls x100)” value is recorded as 60% and the “Toxicity Death” value was 8/10. In the series on P388 leukemia, the “antitumor activity (overall conclusion)” value is on record as “remarkable antitumor activity”, the “potency relative to the corresponding parent compounds” value is given as “less potent than the corresponding parent compounds” and the “toxicity relative to the corresponding parent compounds” value was “less toxic”. Also, the antitumor effect entry with P388 leukemia (maximal tolerated dose 22.5 mg/kg i.p.) was “remarkable antitumor effect”.

Source of the values: patent publication US4477444A, “Antracycline glycosides, pharmaceutical compositions and method of use” (priority 1981, dated 1984).
